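Test compounds were applied to cells in 96-well plates for 48 hours at 5 doses. TGI is the concentration that stops growth completely.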
Assays:
Experiment in all cases: NCI anticancer screen, dose series, 48 h
[1] = test system: SN12C renal
[2] = test system: COLO 205 colon
[3] = test system: LOX IMVI melanoma
[4] = test system: SR leukemia
[5] = test system: HT29 colon
[6] = test system: DMS 114 small cell lung
[7] = test system: SW-620 colon
[8] = test system: SF-268 CNS
[9] = test system: SNB-78 CNS
[10] = test system: SNB-75 CNS
[11] = test system: NCI-H460 lung
[12] = test system: SK-MEL-2 melanoma
[13] = test system: U251 CNS
[14] = test system: NCI-H23 lung
[15] = test system: OVCAR-4 ovarian
[16] = test system: LXFL 529 NSCLC
[17] = test system: SF-295 CNS
[18] = test system: DLD-1 colon
[19] = test system: CAKI-1 renal
[20] = test system: HCC-2998 colon
[21] = test system: UACC-257 melanoma
[22] = test system: 786-0 renal
[23] = test system: M14 melanoma
[24] = test system: A549 NSCLC
[25] = test system: DMS 273 small cell lung
[26] = test system: HOP-92 NSCLC
[27] = test system: HOP-62 NSCLC
[28] = test system: OVCAR-8 ovarian
[29] = test system: UO-31 renal
[30] = test system: OVCAR-3 ovarian
[31] = test system: OVCAR-5 ovarian
[32] = test system: HL-60(TB) leukemia
[33] = test system: KM20L2 colon
[34] = test system: SF-539 CNS
[35] = test system: KM12 colon
[36] = test system: SNB-19 CNS
[37] = test system: NCI-H522 lung
[38] = test system: HCT-116 colon
[39] = test system: HCT-15 colon
[40] = test system: MOLT-4 leukemia
[41] = test system: RPMI-8226 leukemia
[42] = test system: TK-10 renal
[43] = test system: SK-MEL-5 melanoma
[44] = test system: UACC-62 melanoma
[45] = test system: M19-MEL melanoma
[46] = test system: SK-MEL-28 melanoma
[47] = test system: CCRF-CEM leukemia
[48] = test system: IGROV1 ovarian
[49] = test system: ACHN renal
[50] = test system: A498 renal
[51] = test system: EKVX NSCLC
[52] = test system: SK-OV-3 ovarian
[53] = test system: K-562 leukemia
[54] = test system: RXF 393 renal
[55] = test system: NCI-H226 lung
[56] = test system: XF 498 CNS

Molecule `O/N=C(\c1ccccc1)N1CCCCC1` has a TGI [1] greater than 100 µM, a TGI [2] greater than 100 µM and a TGI [3] greater than 100 µM. It also gave a TGI [4] greater than 100 µM, a TGI [5] greater than 100 µM and a TGI [6] greater than 100 µM. The TGI [7] was greater than 100 µM, the TGI [8] was greater than 100 µM and the TGI [9] was greater than 100 µM. It also gave a TGI [10] greater than 100 µM, a TGI [11] greater than 100 µM and a TGI [12] greater than 100 µM. For the same molecule, the TGI [13] was greater than 100 µM, the TGI [14] was greater than 100 µM and the TGI [15] was greater than 100 µM. For the same molecule, the TGI [16] was greater than 100 µM, the TGI [17] was greater than 100 µM and the TGI [18] was greater than 100 µM. For the same molecule, the TGI [19] was greater than 100 µM, the TGI [20] was greater than 100 µM and the TGI [21] was greater than 100 µM. The TGI [22] was greater than 100 µM, the TGI [23] was greater than 100 µM and the TGI [24] was greater than 100 µM. For the same molecule, the TGI [25] was greater than 100 µM, the TGI [26] was greater than 100 µM and the TGI [27] was greater than 100 µM. It also gave a TGI [28] greater than 100 µM, a TGI [29] greater than 100 µM and a TGI [30] greater than 100 µM. It also gave a TGI [31] greater than 100 µM, a TGI [32] greater than 100 µM and a TGI [33] greater than 100 µM. For the same molecule, the TGI [34] was greater than 100 µM, the TGI [35] was greater than 100 µM and the TGI [36] was greater than 100 µM. For the same molecule, the TGI [37] was greater than 100 µM and the TGI [38] was greater than 100 µM.
`O=C(Nc1ccc(Cl)cc1)C(=O)C(C(=O)c1ccccc1-c1ccccc1)C1OC(=O)c2ccccc21` (configuration not stated) was tested, and the TGI [1] was 62.4 µM, the TGI [2] was 44.4 µM and the TGI [3] was 36 µM. The TGI [4] was 82.9 µM, the TGI [39] was 37.3 µM and the TGI [5] was 58.6 µM. For the same molecule, the TGI [40] was greater than 100 µM, the TGI [6] was 38.8 µM and the TGI [7] was 46.2 µM. It also gave a TGI [41] greater than 100 µM, a TGI [42] of 57.3 µM and a TGI [8] of 64.1 µM. The TGI [9] was greater than 100 µM, the TGI [10] was 93.3 µM and the TGI [11] was 40.1 µM. It also gave a TGI [12] of 55.5 µM, a TGI [43] of 32 µM and a TGI [13] of 27.8 µM. It also gave a TGI [14] of 53.4 µM, a TGI [15] greater than 100 µM and a TGI [16] of 34.2 µM. For the same molecule, the TGI [17] was greater than 100 µM, the TGI [44] was 29.5 µM and the TGI [45] was 41.6 µM. The TGI [18] was greater than 100 µM, the TGI [19] was 55.7 µM and the TGI [20] was 33.8 µM. The TGI [46] was 36.6 µM, the TGI [21] was 61.3 µM and the TGI [47] was 58 µM. For the same molecule, the TGI [48] was greater than 100 µM, the TGI [23] was 42.4 µM and the TGI [24] was 50.7 µM. For the same molecule, the TGI [49] was 92.4 µM, the TGI [50] was 38.7 µM and the TGI [25] was greater than 100 µM. For the same molecule, the TGI [26] was 65.6 µM, the TGI [51] was 37.9 µM and the TGI [52] was 64.3 µM. It also gave a TGI [53] greater than 100 µM, a TGI [27] greater than 100 µM and a TGI [28] of 29.3 µM. For the same molecule, the TGI [29] was 36.6 µM, the TGI [31] was 92.4 µM and the TGI [32] was 53.5 µM. For the same molecule, the TGI [33] was 55.6 µM, the TGI [54] was 24.4 µM and the TGI [34] was 58.4 µM. For the same molecule, the TGI [35] was 39.4 µM, the TGI [55] was 24 µM and the TGI [56] was 36.6 µM. It also gave a TGI [36] of 38.2 µM, a TGI [37] of 28.3 µM and a TGI [38] of 32.1 µM.

— PubChem BioAssay (NCI)
